Measured values: patent publication US7303740B2, “Methods for the diagnosis and treatment of breast cancer” (Albert Einstein College of Medicine of Yeshiva University, priority 2000, dated 2007)

Legend:
mgNIS [1] = assay: Immunoblot analysis of mgNIS in MG from ovariectomized nubile mice treated with hormones; assay type: in vivo; conditions: for mgNIS expression in mammary tissue (immunoblot): three consecutive days
Description: FIG. 4. Immunoblot analysis of MG from ovariectomized nubile mice treated with various hormones. Membrane fractions isolated from MG of nubile mice were either sham treated with PBS (lane 1) or treated for three consecutive days with: progesterone (1 I.U.) (lane 2); 17-β-estradiol (1 μg) (lane 3); 17-β-estradiol and progesterone (1 I.U.) (lane 4); oxytocin (1 I.U.) (lane 5); oxytocin and 17-β-estradiol (lane 6); prolactin (10 I.U.) (lane 7); oxytocin, prolactin, and 17-β-estradiol (lane 8); and progesterone together with oxytocin, prolactin, and 17-β-estradiol (lane 9). Isolated membrane fractions were electrophoresed and electrotransferred onto nitrocellulose, followed by immunoblot analysis with anti-NIS Ab.
Oxytocin (α-hypophamine), prolactin, progesterone (4-pregnene-3,20-dione), and 17-β-estradiol (1,3,5[10]-estratriene-3,17-β-diol) were purchased from Sigma, St. Louis, Mo. Either ovariectomized or surgically unmodified 8- to 10-week-old CD1 (ICR) IBR mice (Charles River Laboratories, Wilmington, Mass.) were treated once a day with subcutaneous injections of 1 I.U. of oxytocin, 10 I.U. of prolactin, 1 μg 17-β-estradiol, or 1 I.U. of progesterone (intraperitoneally) for three consecutive days, either individually or in the indicated combination. A final injection was done on the fourth day; two hours later, mammary glands were removed for analysis. Oxytocin and prolactin were dissolved in sterile distilled water, 17-β-estradiol was dissolved in 90% alcohol, and progesterone was dissolved in sesame oil (Sigma, St. Louis, Mo.). Except for progesterone, indicated doses of hormones were injected after being taken in 200 μl sterile PBS solution. Progesterone (final concentration 10 mg/ml) was injected into 100 μl of sesame oil. Control animals which were sham treated with sesame oil were systematically included in experiments when progesterone was administered. At least three identically-treated animals were analyzed in each case.
Sprague-Dawley female rats (over 8 weeks old) at different physiological stages, and hormonally-treated CD1 (ICR) BR female mice, were sacrificed in a CO2 chamber before excision of thoracic, abdominal, and inguinal MG. Organs, which were removed from mice or rats were blended with a polytron homogenizer (Brinkmann Instruments, Westbury, N.Y.) for 1 min, and homogenized with a stirrer-type glass-teflon homogenizer (Caframo-Wiarton, Ontario, Canada) (Levy et al., 1997). Membrane fractions were prepared in the presence of protease inhibitors, as described above (Kaminsky et al., 1994). SDS-PAGE electrophoresis and electroblotting to nitrocellulose were performed as described in Levy et al. (1997). All samples were diluted 1:2 with loading buffer (Harlow and Lane, 1988) and heated at 37° C. for 30 min prior to electrophoresis. […]

mgNIS [2] = assay: mgNIS expression (immunoblot) and 125I- transport in MG of hormonally treated intact nubile mice; assay type: in vivo; conditions: intact nubile animals
Description: (§1) FIG. 3. In vivo effect of oxytocin on functional expression of mgNIS in nubile mice. (A) Radioiodide transport in MG of oxytocin-treated nubile mice. Seven- to eight-week-old female mice were treated subcutaneously with phosphate buffered saline solution (PBS), 10 I.U. of prolactin (PRL), 1 I.U. of oxytocin (OXY), or prolactin and oxytocin (PRL+OXY) for three days. Then, 1 μCi of ^125I^− was injected intraperitoneally. […] (B) Immunoblot analysis of MG from hormonally-treated mice. […] Isolated membrane fractions were electrophoresed, electrotransferred onto nitrocellulose, and analyzed by immunoblots using anti-NIS Ab. […] Perchlorate-inhibited accumulation of ^99mTcO4^− was detected in stomach and MG of OXY-treated animals. (D) Quantification of ^99mTcO4^− accumulation in various organs from OXY- or PBS-treated mice. Tracer accumulation was monitored using image analysis software (ImageQuant, Macintosh). […] Counts were divided by the weight of the organs (cpm/mg tissue), and standardized by dividing them by cpm detected in the blood (cpm/mg blood) of each animal. ^99mTcO4^− accumulation in the organs from: PBS-treated animals (open bars); OXY-treated animals (dotted bars); and OXY-treated animals after ^99mTcO4^−+perchlorate injection (dark bars). […]

mgNIS [3] = molecular target: T1, mgNIS (Mus musculus, UniProt Q99PN0); assay: Ex vivo scintigraphic imaging of 99mTcO4- accumulation in organs of oxytocin-treated nubile mice; set-up: Membrane fractions isolated from MG of nubile female mice; from tissue; host or cells: CD1 (ICR) mice (intact, ovariectomized, gestating) and MMTV-ras / MMTV-neu transgenic mice: mammary gland, mammary adenocarcinoma, stomach; conditions: organs removed 30 min after tracer
T1 sequence (Q99PN0 1-618): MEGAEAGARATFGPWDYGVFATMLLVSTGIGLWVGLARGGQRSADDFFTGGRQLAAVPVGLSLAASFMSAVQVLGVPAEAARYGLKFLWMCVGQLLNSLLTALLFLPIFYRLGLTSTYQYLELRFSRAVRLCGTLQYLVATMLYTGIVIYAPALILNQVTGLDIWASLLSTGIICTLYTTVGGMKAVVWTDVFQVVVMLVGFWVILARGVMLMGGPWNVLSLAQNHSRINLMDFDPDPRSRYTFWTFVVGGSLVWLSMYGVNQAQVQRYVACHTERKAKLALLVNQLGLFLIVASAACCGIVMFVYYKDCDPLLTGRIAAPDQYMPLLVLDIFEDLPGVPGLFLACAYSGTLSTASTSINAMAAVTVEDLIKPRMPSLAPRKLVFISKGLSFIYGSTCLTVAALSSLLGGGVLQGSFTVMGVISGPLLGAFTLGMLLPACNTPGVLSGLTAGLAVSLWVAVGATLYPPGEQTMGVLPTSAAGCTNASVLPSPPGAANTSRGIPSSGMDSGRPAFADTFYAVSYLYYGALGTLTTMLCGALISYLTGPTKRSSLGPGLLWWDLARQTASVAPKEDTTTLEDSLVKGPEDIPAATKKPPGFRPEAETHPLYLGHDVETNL
Description: as §1

`C[C@]12CC[C@@H]3c4ccc(O)cc4CC[C@H]3[C@@H]1CC[C@@H]2O` [17-β-estradiol, 1,3,5[10]-estratriene-3,17-β-diol] was tested, and the “mgNIS expression in mammary tissue (immunoblot)” value (mgNIS [1]) was “clearly discernible increase”.

In the case of `CC[C@H](C)[C@@H]1NC(=O)[C@H](Cc2ccc(O)cc2)NC(=O)[C@@H](N)CSSC[C@@H](C(=O)N2CCC[C@H]2C(=O)N[C@@H](CC(C)C)C(=O)NCC(N)=O)NC(=O)[C@H](CC(N)=O)NC(=O)[C@H](CCC(N)=O)NC1=O` [oxytocin, α-hypophamine], the “mgNIS expression in MG (immunoblot), leading to 125I- transport” value (mgNIS [2]; 1 I.U. s.c. for three days) is reported as “induced mgNIS expression”, the “mgNIS expression in mammary tissue (immunoblot)” value (mgNIS [1]) is reported as “did not cause an increase” and the “perchlorate-inhibited 99mTcO4- accumulation in MGs versus sham-treated mice” value (mgNIS [3]) is reported as “significantly higher”.

`CC(=O)[C@H]1CC[C@H]2[C@@H]3CCC4=CC(=O)CC[C@]4(C)[C@H]3CC[C@]12C` [progesterone, 4-pregnene-3,20-dione] was tested, and the “effect on 17-β-estradiol enhancement of mgNIS expression” value (mgNIS [1]) was “did not interfere” and the “mgNIS expression when added to the 17-β-estradiol/oxytocin/prolactin combination” value (mgNIS [1]) was “significantly decreased”.

B1: prolactin: a glycoprotein released from the anterior pituitary (protein, UniProt P01236 29-227, looked up)
Prolactin: LPICPGGAARCQVTLRDLFDRAVVLSHYIHNLSSEMFSEFDKRYTHGRGFITKAINSCHTSSLATPEDKEQAQQMNQKDFLSLIVSILRSWNEPLYHLVTEVRGMQEAPEAILSKAVEIEEQTKRLLEGMELIVSQVHPETKENEIYPVWSGLPSLQMADEESRLSAYYNLLHCLRRDSHKIDNYLKLLKCRIIHNNNC
With B1 the “effect on upregulation of mgNIS by oxytocin” value (mgNIS [2]; 10 I.U. prolactin with 1 I.U. oxytocin) was “antagonized”.
